Results taken from paper PMC9953295, “Commonly Used Therapeutics Associated with Changes in Arousal Inhibit GABAAR Activation” (Biomolecules, 2023).
Structures can show the parent of a compound that is named as a salt.

What was measured:
[1] = one reference per drug; cited from earlier work
[2] = biological target: T1, Human GABAA receptor (α1β2γ2s) expressed in HEK293 cells (Homo sapiens, UniProt P14867+P18507+P47870); experiment: Conventional whole-cell patch clamp: GABAA receptor activation and CSF-mediated potentiation; assay type: cell-based; conditions: for Effect on GABAA receptor activation (in words): conventional single electrode patch clamp
T1 construct: expressed in transfected cells; host or cells: HEK293
Description: Human GABAA receptor cDNAs (α1β2γ2s) were subcloned into the pcDNA 3.1 expression vector, and they were subsequently transfected into HEK293 cells using standard methods. Forty-eight hours later, cells were exposed to individual GABAARNAM solutions with simultaneous exposure to GABA. GABAARNAMs were obtained from Sigma-Aldrich, and the solutions were prepared with a saline solution to 1–300 µM concentrations. […] Stable cell lines were generated and handled as previously described.
Patch pipettes were fabricated from thin-walled borosilicate glass (TW150F-4, World Precision Instruments, Inc., Sarasota, FL, USA) using a horizontal puller (P-97, Sutter Instrument Co., Novato, CA, USA). The resistances of the patch pipettes were 2–5 megaohms when filled with an intracellular solution containing 120 mM KCl, 2 mM MgCl2, 10 mM EGTA, and 10 mM HEPES, adjusted to pH 7.2 with NaOH. Cells were perfused continuously with an extracellular solution containing 160 mM NaCl, 10 mM HEPES, 6 mM D-glucose, 3 mM KCl, 1 mM MgCl2, and 1.5 mM CaCl2, adjusted to pH 7.4. Two 10-channel infusion pumps (KD Scientific) and a rapid solution exchanger (Biologic) were used to apply extracellular saline to the cells. […] The solution changer was driven by protocols written in pClamp 9.2 (Molecular Devices).

[3] = biological target: α1β2γ2L GABAA receptors stably expressed in HEK293 cells (Mus musculus, UniProt P22723+P62812+P63137); assay type: cell-based; conditions: for nH: Hill coefficient of modulator concentration-response; for Effect on GABAA receptor activation (in words): microfluidic patch clamp, concentrations up to 300 μM
Description: Extracellular saline solutions contained 140 mM NaCl, 5 mM KCl, 2 mM CaCl2, 1 mM MgCl2, 10 mM HEPES, and 10 mM D-glucose. Both salines were adjusted to pH 7.4 (330 mOsm) and were 0.2 µm filter sterilized. The composition was based on solutions designed for long duration HEK293 biophysics studies. HEK293 cells stably expressing mouse α1β2γ2L receptors were dissociated with detachin (Genlantis, San Diego, CA, USA), resuspended in extracellular saline (2.5 × 10^6 cells/mL), and agitated prior to loading into 384-well Fluxion ensemble plates.
Cells were patched using an Ionflux Mercury microfluidic automated patch clamp system (Fluxion Biosciences, Oakland, CA, USA). Each experiment ran on a disposable 384-well plate with microfluidic channels printed into an ionized polydimethylsiloxane base. Each plate was divided into 4 zones, each containing 8 repeats of the same experimental pattern (see Figure 1). Each pattern comprised 8 compound wells containing the ligands/modulator combinations to be used in the experiment. Connected to these by a manifold perfusion chamber was an inlet well containing the cell suspension, an outlet well for discarded perfusate, and 2 trapping wells. Both trapping wells contained intracellular solution and were connected to the manifold via 20 1 µm diameter holes for cell attachment (each pattern can patch up to 40 cells simultaneously). Intracellular electrodes were placed in the 2 trapping wells, and the reference electrode in the waste well. Electrodes were connected to 64 conventional low-noise resistive feedback amplifiers. After cleaning, the plates were loaded with up to 100 µL of experimental solution or cell suspension per well. Each plate was loaded into the Fluxion Ionflux Mercury device, and a bespoke script primed the experimental fluidic channels and manifold, and the traps and sealed cells for voltage clamp measurements, and finally, controlled solution application/concentration jumps prior to saving the data collected. Agonist applications were repeated in triplicate (see Supplemental Figure S1). The current data were recorded at 10 kHz and stored for offline analysis. MATLAB scripts were used to measure the baseline leak current and peak response for each episode of data (typically 2000–4000/experiment). The matrix of peaks was expressed as a percentage of the response to a reference concentration. For the agonist concentration–response experiments, this was the maximum response. For the modulator concentration–response experiments, this was the EC10 agonist response.

[4] = design: method as in PMID 10384859; conditions: cited from earlier work

Sequence of α1β2γ2L GABAA receptors stably expressed in HEK293 cells (P63137 26-512): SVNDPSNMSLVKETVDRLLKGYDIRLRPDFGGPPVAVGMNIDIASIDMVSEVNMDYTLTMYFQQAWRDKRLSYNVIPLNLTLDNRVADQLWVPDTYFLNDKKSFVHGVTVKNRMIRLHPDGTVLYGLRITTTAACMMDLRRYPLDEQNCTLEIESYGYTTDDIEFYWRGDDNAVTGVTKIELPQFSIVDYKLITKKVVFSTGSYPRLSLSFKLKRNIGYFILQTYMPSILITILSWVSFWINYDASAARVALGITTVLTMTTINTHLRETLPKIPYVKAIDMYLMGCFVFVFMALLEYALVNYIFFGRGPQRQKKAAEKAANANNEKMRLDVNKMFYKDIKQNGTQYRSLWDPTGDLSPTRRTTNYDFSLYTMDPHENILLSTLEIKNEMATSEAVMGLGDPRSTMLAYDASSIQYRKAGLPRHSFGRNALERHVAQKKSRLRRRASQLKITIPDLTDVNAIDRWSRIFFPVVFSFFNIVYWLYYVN
Sequence of α1β2γ2L GABAA receptors stably expressed in HEK293 cells (P22723 39-474): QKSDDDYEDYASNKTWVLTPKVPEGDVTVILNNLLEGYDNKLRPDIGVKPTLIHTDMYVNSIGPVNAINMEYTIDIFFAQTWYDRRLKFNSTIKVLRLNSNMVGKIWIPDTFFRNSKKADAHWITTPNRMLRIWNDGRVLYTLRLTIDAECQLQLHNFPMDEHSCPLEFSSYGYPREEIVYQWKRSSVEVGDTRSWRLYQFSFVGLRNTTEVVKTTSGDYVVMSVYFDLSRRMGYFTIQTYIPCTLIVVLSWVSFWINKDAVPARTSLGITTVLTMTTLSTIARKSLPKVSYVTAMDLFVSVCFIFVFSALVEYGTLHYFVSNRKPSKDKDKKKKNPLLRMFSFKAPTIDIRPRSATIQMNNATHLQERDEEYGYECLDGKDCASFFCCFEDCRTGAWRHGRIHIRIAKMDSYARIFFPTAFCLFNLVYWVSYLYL
Sequence of α1β2γ2L GABAA receptors stably expressed in HEK293 cells (P62812 28-455): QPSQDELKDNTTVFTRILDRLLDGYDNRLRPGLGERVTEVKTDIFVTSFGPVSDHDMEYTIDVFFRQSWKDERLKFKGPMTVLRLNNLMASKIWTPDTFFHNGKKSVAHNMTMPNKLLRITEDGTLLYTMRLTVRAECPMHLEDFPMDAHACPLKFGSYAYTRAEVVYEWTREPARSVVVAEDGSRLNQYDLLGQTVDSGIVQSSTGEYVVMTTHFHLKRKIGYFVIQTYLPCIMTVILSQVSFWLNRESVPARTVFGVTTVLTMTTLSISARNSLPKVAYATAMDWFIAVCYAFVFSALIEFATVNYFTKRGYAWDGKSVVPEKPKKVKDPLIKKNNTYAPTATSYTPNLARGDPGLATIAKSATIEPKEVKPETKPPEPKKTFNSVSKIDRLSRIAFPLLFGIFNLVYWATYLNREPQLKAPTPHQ
T1 sequence (P14867 28-456): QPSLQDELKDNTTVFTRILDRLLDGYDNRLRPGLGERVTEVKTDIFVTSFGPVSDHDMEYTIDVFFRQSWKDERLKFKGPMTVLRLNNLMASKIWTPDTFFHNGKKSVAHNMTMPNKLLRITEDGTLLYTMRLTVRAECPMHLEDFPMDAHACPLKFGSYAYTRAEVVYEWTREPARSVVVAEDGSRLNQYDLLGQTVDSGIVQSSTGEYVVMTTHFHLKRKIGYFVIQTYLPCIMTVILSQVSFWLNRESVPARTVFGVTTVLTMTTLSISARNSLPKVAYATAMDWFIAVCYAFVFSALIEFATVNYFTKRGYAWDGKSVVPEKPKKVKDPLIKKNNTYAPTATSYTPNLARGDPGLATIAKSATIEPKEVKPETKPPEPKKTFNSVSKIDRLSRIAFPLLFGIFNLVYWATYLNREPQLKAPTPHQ
T1 sequence (P47870 25-512 limits assumed): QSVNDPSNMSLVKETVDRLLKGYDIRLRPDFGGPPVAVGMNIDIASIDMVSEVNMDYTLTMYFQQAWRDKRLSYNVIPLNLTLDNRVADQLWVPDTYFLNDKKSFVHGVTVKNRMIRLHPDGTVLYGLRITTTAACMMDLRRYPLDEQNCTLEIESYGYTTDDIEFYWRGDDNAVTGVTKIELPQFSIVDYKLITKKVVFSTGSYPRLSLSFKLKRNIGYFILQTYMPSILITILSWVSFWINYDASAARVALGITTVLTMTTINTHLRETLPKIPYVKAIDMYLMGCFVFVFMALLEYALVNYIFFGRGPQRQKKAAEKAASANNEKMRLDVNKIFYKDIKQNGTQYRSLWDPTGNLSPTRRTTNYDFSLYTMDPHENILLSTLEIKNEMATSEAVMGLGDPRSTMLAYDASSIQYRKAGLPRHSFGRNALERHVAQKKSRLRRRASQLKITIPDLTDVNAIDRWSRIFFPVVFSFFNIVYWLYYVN
T1 sequence (P18507 40-467 isoform P18507-1 limits assumed): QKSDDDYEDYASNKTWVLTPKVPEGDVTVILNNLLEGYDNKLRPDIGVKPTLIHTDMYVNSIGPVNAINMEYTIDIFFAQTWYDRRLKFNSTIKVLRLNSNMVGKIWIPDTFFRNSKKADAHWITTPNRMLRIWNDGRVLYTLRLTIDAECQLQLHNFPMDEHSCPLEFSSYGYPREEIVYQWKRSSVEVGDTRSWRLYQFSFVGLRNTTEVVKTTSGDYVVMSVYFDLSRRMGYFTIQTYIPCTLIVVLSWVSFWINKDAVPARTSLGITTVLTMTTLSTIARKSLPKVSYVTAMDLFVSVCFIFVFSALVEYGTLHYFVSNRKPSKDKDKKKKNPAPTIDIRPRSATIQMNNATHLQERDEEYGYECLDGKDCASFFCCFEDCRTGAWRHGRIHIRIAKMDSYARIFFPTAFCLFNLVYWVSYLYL

SMILES	[CNS] concentration of drug in the CNS [1]	nH [3]	Effect on GABAA receptor activation (in words) [3]	further results
CCN(CC)CCCC(C)Nc1ccnc2cc(Cl)ccc12 (stereo not shown) [Chloroquine]	1.60 [36] μM			
CC[C@H]1OC(=O)[C@H](C)[C@@H](O[C@H]2C[C@@](C)(OC)[C@@H](O)[C@H](C)O2)[C@H](C)[C@@H](O[C@@H]2O[C@H](C)C[C@H](N(C)C)[C@H]2O)[C@](C)(OC)C[C@@H](C)C(=O)[C@H](C)[C@@H](O)[C@]1(C)O [Clarithromycin, clarithromycin]	10 [37] μM	1	reversibly inhibited GABAA receptor activation in a concentration-dependent manner	Reversal of CSF-induced potentiation of GABA receptor function ([2]; 300 μM clarithromycin, currents activated by 10 μM GABA (EC10), CSF from hypersomnolent patients, n = 6 cells): 71 ± 13%; Intrinsic efficacy at GABAA receptor (in words) ([2]; clarithromycin applied without GABA): no intrinsic efficacy; Effect on GABAA receptor activation (in words) [2]: reversibly inhibits receptor activation; Effect of clarithromycin concentration on GABA EC50 (in words) ([3]; GABA concentration–function relationships in 0–300 μM clarithromycin): GABA EC50 continued to increase
O=C(O[C@@H]1Cc2c(O)cc(O)cc2O[C@@H]1c1cc(O)c(O)c(O)c1)c1cc(O)c(O)c(O)c1 [EGCG, (-)-Epigallocatechin Gallate]	0.18 [35] μM	1.1	modest inhibition of GABA activation	
CC[C@H]1OC(=O)[C@H](C)[C@@H](O[C@H]2C[C@@](C)(OC)[C@@H](O)[C@H](C)O2)[C@H](C)[C@@H](O[C@@H]2O[C@H](C)C[C@H](N(C)C)[C@H]2O)[C@](C)(O)C[C@@H](C)C(=O)[C@H](C)[C@@H](O)[C@]1(C)O [Erythromycin]	0.68 [38] μM			
NCCCC(=O)O [GABA]				Response to GABA as % of the maximal response ([3]; 100 µM GABA): > 90%
CCN(CCO)CCCC(C)Nc1ccnc2cc(Cl)ccc12 (stereo not shown) [Hydroxychloroquine, Hydroxychloroquine sulfate]	50 [39] μM	1.4	modest and incomplete block of receptor activation	
Cc1ncc([N+](=O)[O-])n1CCO [Metronidazole]		0.8	modest inhibition of GABA activation	Bioavailability ([4]; administered orally): > 90%; CNS concentration as % of plasma concentrations [4]: 60–100%
CN(C)c1ccc(O)c2c1C[C@H]1C[C@H]3[C@H](N(C)C)C(O)=C(C(N)=O)C(=O)[C@@]3(O)C(O)=C1C2=O [Minocycline]	1.1 [41] μM		irreversible blocker	
CC1COc2c(N3CCN(C)CC3)c(F)cc3c(=O)c(C(=O)O)cn1c23 (stereo not shown) [Ofloxacin]	5.6 [42] μM		modest and incomplete block of receptor activation	Effect on GABAA receptor activation (in words) [2]: modest and incomplete block of receptor activation
C1CCc2nnnn2CC1 [pentylenetetrazole, Pentylenetetrazol]	330 [43] μM	1.3	blocked GABAAR activation in a concentration-dependent manner	
